The target in experiment [1] is hCB1 receptor (Homo sapiens, UniProt P21554). Kind of experiment: hCB1 Gαq16-coupled calcium mobilization assay in CHO-K1 cells. Type of experiment: cell-based. The settings on record: for EC50: hCB1 Ca EC50, CHO cells expressing hCB1 and Gαq16, calcium mobilization. (In general: A change in cytosolic calcium serves as a functional read-out for many receptors and channels.)

Experiment [2] deals with hCB2 receptor (Homo sapiens, UniProt P34972). Description: hCB2 Gαq16-coupled calcium mobilization assay in CHO-K1 cells. The settings on record: hCB2 Ca EC50, CHO cells expressing hCB2 and Gαq16, calcium mobilization. Type of experiment: cell-based.

The structures appear in SMILES notation. “And” between values parts separate entries of the source, which are not always exact repeats. Equal values may be shown once.

hCB2 receptor, sequence (P34972 whole entry): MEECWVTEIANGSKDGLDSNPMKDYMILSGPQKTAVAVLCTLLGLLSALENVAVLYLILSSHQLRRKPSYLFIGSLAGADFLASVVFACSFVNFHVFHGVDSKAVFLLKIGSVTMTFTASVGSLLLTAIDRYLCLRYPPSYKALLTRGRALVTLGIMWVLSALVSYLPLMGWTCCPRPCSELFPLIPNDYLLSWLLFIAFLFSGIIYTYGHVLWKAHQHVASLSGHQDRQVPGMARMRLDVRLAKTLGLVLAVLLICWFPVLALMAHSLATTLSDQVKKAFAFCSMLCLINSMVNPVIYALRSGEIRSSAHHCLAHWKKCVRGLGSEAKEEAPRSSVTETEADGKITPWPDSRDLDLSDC
hCB1 receptor, sequence (P21554 whole entry): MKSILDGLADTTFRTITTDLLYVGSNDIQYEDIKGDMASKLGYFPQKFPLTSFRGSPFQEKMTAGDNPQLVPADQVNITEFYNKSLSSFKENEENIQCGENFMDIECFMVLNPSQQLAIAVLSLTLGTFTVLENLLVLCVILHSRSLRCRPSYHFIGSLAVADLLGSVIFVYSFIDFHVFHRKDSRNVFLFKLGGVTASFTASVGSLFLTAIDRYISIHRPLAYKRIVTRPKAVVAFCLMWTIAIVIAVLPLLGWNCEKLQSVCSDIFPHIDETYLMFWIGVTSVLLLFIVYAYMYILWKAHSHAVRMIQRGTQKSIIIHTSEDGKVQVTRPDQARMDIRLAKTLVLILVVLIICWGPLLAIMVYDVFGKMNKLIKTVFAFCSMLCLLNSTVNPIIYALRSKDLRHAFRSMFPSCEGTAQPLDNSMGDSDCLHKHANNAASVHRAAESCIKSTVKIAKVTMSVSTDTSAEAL

As for `CC(C)[C@H](NC(=O)c1nn(Cc2ccc(F)cc2)c2ccccc12)C(=O)O` [Compound 5, (2S)-2-({1-[(4-Fluorophenyl)methyl]-1H-indazol-3-yl}formamido)-3-methylbutanoic Acid], the EC50 (commonly the concentration needed to bring the measured effect to its halfway point) in experiment [1] amounted to 5550 ± 435 nM; in experiment [2], 516 ± 19 nM.
Turning to `CNC(=O)[C@@H](NC(=O)c1nn(Cc2ccc(F)cc2)c2ccccc12)C(C)C` [Compound 6, (2S)-2-({1-[(4-Fluorophenyl)methyl]-1H-indazol-3-yl}formamido)-N,3-dimethylbutanamide], the EC50 in experiment [1] amounted to 12 ± 2 nM; in experiment [2], 30 ± 1 nM.
Taken in the same sequence, the figures for `NC(=O)[C@@H](NC(=O)c1nn(Cc2ccc(F)cc2)c2ccccc12)c1ccccc1` [Compound 7, (2S)-2-({1-[(4-Fluorophenyl)methyl]-1H-indazol-3-yl}formamido)-2-phenylacetamide] were 178 ± 55 nM and 42 ± 9 nM.
The corresponding values for `NC(=O)[C@H](Cc1ccccc1)NC(=O)c1nn(Cc2ccc(F)cc2)c2ccccc12` [Compound 8, (2S)-2-({1-[(4-Fluorophenyl)methyl]-1H-indazol-3-yl}formamido)-3-phenylpropanamide] are 337 ± 33 nM and 59 ± 7 nM.
Taken in the same sequence, the figures for `NC(=O)C1(NC(=O)c2nn(Cc3ccc(F)cc3)c3ccccc23)CCCC1` [Compound 9, N-(1-Carbamoylcyclopentyl)-1-[(4-fluorophenyl)methyl]-1H-indazole-3-carboxamide] were 1240 ± 17 nM and 63 ± 6 nM.
On to `CC(C)(NC(=O)c1nn(Cc2ccc(F)cc2)c2ccccc12)C(N)=O` [Compound 10, 2-({1-[(4-Fluorophenyl)methyl]-1H-indazol-3-yl}formamido)-2-methylpropanamide], for which the EC50 was over 10000 nM in experiment [1] and 477 ± 142 nM in experiment [2].
The corresponding values for `CNC(=O)C(C)(C)NC(=O)c1nn(Cc2ccc(F)cc2)c2ccccc12` [Compound 11, 2-({1-[(4-Fluorophenyl)methyl]-1H-indazol-3-yl}formamido)-N,2-dimethylpropanamide] are 182 ± 6 nM and 21 ± 3 nM.
Taken in the same sequence, the figures for `CC(C)(NC(=O)c1nn(Cc2ccc(F)cc2)c2ccccc12)C(=O)Nc1cccc(C(N)=O)c1` [Compound 12, 3-[2-({1-[(4-Fluorophenyl)methyl]-1H-indazol-3-yl}formamido)-2-methylpropanamido]benzamide] were 360 ± 88 nM and 360 ± 48 nM.
With `CN(CC(N)=O)C(=O)C(C)(C)NC(=O)c1nn(Cc2ccc(F)cc2)c2ccccc12` [Compound 13, N-(Carbamoylmethyl)-2-({1-[(4-fluorophenyl)methyl]-1H-indazol-3-yl}formamido)-N,2-dimethylpropanamide], the EC50 stood at 282 ± 73 nM in experiment [1] and 74 ± 19 nM in experiment [2].
Taken in the same sequence, the figures for `CC(C)(NC(=O)c1nn(Cc2ccc(F)cc2)c2ccccc12)C(=O)N1CCC[C@@H]1C(N)=O` [Compound 15, N-{1-[(2R)-2-Carbamoylpyrrolidin-1-yl]-2-methyl-1-oxopropan-2-yl}-1-[(4-fluorophenyl)methyl]-1H-indazole-3-carboxamide] were over 10000 nM and over 10000 nM.
Taken in the same sequence, the figures for `NC(=O)[C@@H]1CCCN1C(=O)C1(NC(=O)c2nn(Cc3ccc(F)cc3)c3ccccc23)CC1` [Compound 16, N-{1-[(2S)-2-Carbamoylpyrrolidine-1-carbonyl]cyclopropyl}-1-[(4-fluorophenyl)methyl]-1H-indazole-3-carboxamide] were 168 ± 13 nM and 190 ± 88 nM.
Taken in the same sequence, the figures for `CC(C)(CN1CCC[C@H]1C(N)=O)NC(=O)c1nn(Cc2ccc(F)cc2)c2ccccc12` [Compound 17, N-{1-[(2S)-2-Carbamoylpyrrolidin-1-yl]-2-methylpropan-2-yl}-1-[(4-fluorophenyl)methyl]-1H-indazole-3-carboxamide] were 32 ± 15 nM and 101 ± 34 nM.
With `O=C(NCc1ccc(F)cc1)c1nn(Cc2ccc(F)cc2)c2ccccc12` [Compound 18, N,1-Bis[(4-fluorophenyl)methyl]-1H-indazole-3-carboxamide], the EC50 in experiment [1] was determined as 181 ± 20 nM; in experiment [2], 168 ± 24 nM.
Consider `NC(=O)c1ccccc1CNC(=O)c1nn(Cc2ccc(F)cc2)c2ccccc12` [Compound 19, N-[(2-Carbamoylphenyl)methyl]-1-[(4-fluorophenyl)methyl]-1H-indazole-3-carboxamide], for which the values for the EC50 in experiment [1] and in experiment [2] were 423 ± 190 nM and 52 ± 22 nM, respectively.
As to `NC(=O)c1cccc(CNC(=O)c2nn(Cc3ccc(F)cc3)c3ccccc23)c1` [Compound 20, N-[(3-Carbamoylphenyl)methyl]-1-[(4-fluorophenyl)methyl]-1H-indazole-3-carboxamide], the EC50 in experiment [1] was 38 ± 14 nM; in experiment [2], 170 nM and 172 nM. For the same compound, the “hCB1 Ca Emax” value in experiment [1] (percentage of the maximum CP55,940 signal, CHO cells expressing hCB1 and Gαq16) is on record as 104 ± 6%.
For the compound `NC(=O)c1ccc(CNC(=O)c2nn(Cc3ccc(F)cc3)c3ccccc23)cc1` [Compound 21, N-[(4-Carbamoylphenyl)methyl]-1-[(4-fluorophenyl)methyl]-1H-indazole-3-carboxamide], the EC50 was over 10000 nM in experiment [1] and 1380 ± 149 nM in experiment [2].
For the compound `C[C@H](NC(=O)c1nn(Cc2ccc(F)cc2)c2ccccc12)c1cccc(C(N)=O)c1` [Compound 22, N-[(1S)-1-(3-Carbamoylphenyl)ethyl]-1-[(4-fluorophenyl)methyl]-1H-indazole-3-carboxamide], the EC50 in experiment [1] was 26 ± 2 nM.
Same read-out and setting: with `C[C@@H](NC(=O)c1nn(Cc2ccc(F)cc2)c2ccccc12)c1cccc(C(N)=O)c1` [Compound 23, N-[(1R)-1-(3-Carbamoylphenyl)ethyl]-1-[(4-fluorophenyl)methyl]-1H-indazole-3-carboxamide] the figure was 433 ± 84 nM.
Turning to `CC(=O)Nc1cccc(C(C)(C)NC(=O)c2nn(Cc3ccc(F)cc3)c3ccccc23)c1` [Compound 25, N-[2-(3-Acetamidophenyl)propan-2-yl]-1-[(4-fluorophenyl)methyl]-1H-indazole-3-carboxamide], the concentration giving a half-maximal response (EC50) in experiment [2] is 68 ± 1 nM.
On to `CC(C)(NC(=O)c1nn(Cc2ccc(F)cc2)c2ccccc12)c1cccc(NC(N)=O)c1` [Compound 26, N-{2-[3-(Carbamoylamino)phenyl]propan-2-yl}-1-[(4-fluorophenyl)methyl]-1H-indazole-3-carboxamide], for which the EC50 in experiment [1] amounted to 590 ± 152 nM.
As to `NC(=O)c1cccc(C2(NC(=O)c3nn(Cc4ccc(F)cc4)c4ccccc34)CC2)c1` [Compound 27, N-[1-(3-Carbamoylphenyl)cyclopropyl]-1-[(4-fluorophenyl)methyl]-1H-indazole-3-carboxamide], the EC50 in experiment [1] worked out at 2740 ± 939 nM; in experiment [2], 96 ± 6 nM.
Take `NC(=O)N1CCC[C@H](CNC(=O)c2nn(Cc3ccc(F)cc3)c3ccccc23)C1` [Compound 30, N-{[(3R)-1-Carbamoylpiperidin-3-yl]methyl}-1-[(4-fluorophenyl)methyl]-1H-indazole-3-carboxamide]: the EC50 in experiment [1] stood at 671 ± 161 nM.
For `NC(=O)N1CCC[C@@H](NC(=O)c2nn(Cc3ccc(F)cc3)c3ccccc23)C1` [Compound 39, N-[(3R)-1-Carbamoylpiperidin-3-yl]-1-[(4-fluorophenyl)methyl]-1H-indazole-3-carboxamide], in experiment [2], the EC50 came out at 207 ± 66 nM.
In the case of `CC(c1ccc(F)cc1)n1nc(C(=O)NC(C)(C)c2cccc(C(N)=O)c2)c2ccccc21` (stereo not drawn) [Compound 47, N-[2-(3-Carbamoylphenyl)propan-2-yl]-1-[1-(4-fluorophenyl)ethyl]-1H-indazole-3-carboxamide], in experiment [1], the EC50 was 243 ± 37 nM.
